These are literature values, as cited in US20140082761A1, “METHODS TO INCREASE PLANT PRODUCTIVITY” (PLANT SENSORY SYSTEMS, LLC, priority 2011, published 2014).

The target in data set [1] is T1, sulfinoalanine decarboxylase (SAD) (Rattus norvegicus, UniProt Q64611).
T1 construct: in vitro assays on SAD isolated from rat; host or cells: enzyme isolated from rat
T1 sequence (Q64611 1-493): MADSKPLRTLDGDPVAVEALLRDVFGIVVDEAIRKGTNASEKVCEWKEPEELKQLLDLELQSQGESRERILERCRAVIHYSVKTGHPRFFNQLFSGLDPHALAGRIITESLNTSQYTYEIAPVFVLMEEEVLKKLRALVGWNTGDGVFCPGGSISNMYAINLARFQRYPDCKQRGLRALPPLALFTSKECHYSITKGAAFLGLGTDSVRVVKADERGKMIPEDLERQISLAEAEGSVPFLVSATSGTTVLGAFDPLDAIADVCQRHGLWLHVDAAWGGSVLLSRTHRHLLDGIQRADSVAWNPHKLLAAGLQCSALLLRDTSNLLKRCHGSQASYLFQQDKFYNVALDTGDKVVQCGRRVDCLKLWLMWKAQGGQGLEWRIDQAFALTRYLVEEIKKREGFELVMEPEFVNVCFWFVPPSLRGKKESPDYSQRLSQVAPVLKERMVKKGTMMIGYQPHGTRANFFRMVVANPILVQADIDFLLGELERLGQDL
Conditions: substrate of SAD (decarboxylation); literature values.

Consider `N[C@@H](CC(=O)O)C(=O)O` [aspartate], for which, in data set [1], the Km is 11 mM.

As to `N[C@@H](CCC(=O)O)C(=O)O` [glutamate], the Km in data set [1] was 2.9 mM. `NCCS(=O)(=O)O` [taurine, 2-aminoethane sulfonic acid]: the “effect of exogenous application on plant growth and production” value in the data set with plants (crop) is “increase crop harvest, yield, and biomass, increase seedling growth and increase photosynthetic capacity of isolated plant cells and chloroplasts”.

As usually defined, the Km is the concentration of substrate that gives half-maximal velocity.
